Experimental data published in ChEMBL document CHEMBL1833965, “A new N-methyl thymine derivative comprising a dihydroxyisobutenyl unit as ligand for thymidine kinase of herpes simplex virus type 1 (HSV-1 TK)” (Bioorg Med Chem Lett, 2011).
pIC50: −log10 of the molar value. The source made the active and inactive calls. No cut-off for these calls is given here.

Columns and labels:
MCF7 = test: Antiproliferative activity against human MCF7 cells after 72 hrs by MTT assay; type: functional, cell-based; conditions: MCF7, 72 h
SW-620 = test: Antiproliferative activity against human SW620 cells after 72 hrs by MTT assay; type: functional, cell-based; conditions: SW-620, 72 h
WI-38 = test: Antiproliferative activity against human WI38 cells after 72 hrs by MTT assay; type: cell-based; conditions: WI-38, 72 h
HeLa = test: Antiproliferative activity against human HeLa cells after 72 hrs by MTT assay; type: functional, cell-based
HepG2 = test: Antiproliferative activity against human HepG2 cells after 72 hrs by MTT assay; type: functional, cell-based; conditions: HepG2, 72 h
MIA PaCa-2 = test: Antiproliferative activity against human MIAPaCa2 cells after 72 hrs by MTT assay; type: functional, cell-based; conditions: MIA PaCa-2, 72 h
[1] = target: T1, Thymidine kinase (Human alphaherpesvirus 1) (UniProt Q9QNF7); test: Activity of HSV-1 GST-TK assessed as formation of compound-monophosphate by HPLC analysis
T1 sequence (whole entry): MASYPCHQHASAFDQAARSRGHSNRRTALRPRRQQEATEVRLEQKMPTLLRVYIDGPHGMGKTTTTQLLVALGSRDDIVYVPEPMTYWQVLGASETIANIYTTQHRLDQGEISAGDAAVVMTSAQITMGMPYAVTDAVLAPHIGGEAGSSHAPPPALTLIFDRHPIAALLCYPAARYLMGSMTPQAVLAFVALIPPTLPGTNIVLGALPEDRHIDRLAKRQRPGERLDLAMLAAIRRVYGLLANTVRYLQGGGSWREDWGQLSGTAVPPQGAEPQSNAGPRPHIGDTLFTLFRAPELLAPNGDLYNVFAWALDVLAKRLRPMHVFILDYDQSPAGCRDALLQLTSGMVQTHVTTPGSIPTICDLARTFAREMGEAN

[2] = target: T2, Thymidine kinase, cytosolic (Homo sapiens) (UniProt P04183); test: Activity of human 6xHis-tagged TK assessed as formation of ADP by HPLC analysis
T2 sequence (whole entry): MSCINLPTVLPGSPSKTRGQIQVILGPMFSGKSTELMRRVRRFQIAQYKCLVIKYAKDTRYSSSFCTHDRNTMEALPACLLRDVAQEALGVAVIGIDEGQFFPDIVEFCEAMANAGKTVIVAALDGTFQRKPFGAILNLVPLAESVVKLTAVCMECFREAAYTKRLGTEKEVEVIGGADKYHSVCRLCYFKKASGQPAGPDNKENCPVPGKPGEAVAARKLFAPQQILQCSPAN

[3] = target: T2, Thymidine kinase, cytosolic (Homo sapiens); test: Activity of human 6xHis-tagged TK assessed as formation of compound-monophosphate by HPLC analysis
[4] = target: T1, Thymidine kinase (Human alphaherpesvirus 1); test: Activity of HSV-1 GST-TK assessed as increase in ADP to ATP ratio at 1 mM after 30 mins
[5] = target: T1, Thymidine kinase (Human alphaherpesvirus 1); test: Activity of HSV-1 GST-TK assessed as formation of ADP by HPLC analysis
[6] = target: T2, Thymidine kinase, cytosolic (Homo sapiens); test: Activity of human 6xHis-tagged TK assessed as effect on ADP to ATP ratio at 1 mM after 30 mins

Row | Compound | pIC50 (MCF7) | pIC50 (SW-620) | pIC50 (WI-38) | pIC50 (HeLa) | pIC50 (HepG2) | pIC50 (MIA PaCa-2) | Activity [1] | Activity [2] | Activity [3] | Activity [4] | Activity [5] | Activity [6]
1 | COc1nc(CC(F)(COC(C)=O)COC(C)=O)c(C)c(OC)n1 | < 4.00 | < 4.00 | < 4.00 | < 4.00 | < 4.00 | < 4.00 | – | – | – | – | – | –
2 | COc1nc(=O)n(C)c(CC(O)(COCc2ccccc2)COCc2ccccc2)c1C | 4.62 | 4.24 | 4.30 | 4.53 | 4.47 | 4.47 | – | – | – | – | – | –
3 | Cc1c(C=C(CO)CO)n(C)c(=O)[nH]c1=O | < 4.00 | < 4.00 | < 4.00 | < 4.00 | < 4.00 | < 4.00 | Active | inactive | inactive | Active | Active | inactive
4 | CC(=O)OCC(=Cc1c(C)c(=O)[nH]c(=O)n1C)COC(C)=O | < 4.00 | < 4.00 | < 4.00 | < 4.00 | < 4.00 | < 4.00 | – | – | – | – | – | –
5 | CC(=O)OCC(O)(COC(C)=O)Cc1c(C)c(=O)[nH]c(=O)n1C | < 4.00 | < 4.00 | < 4.00 | < 4.00 | < 4.00 | < 4.00 | – | – | – | – | – | –
6 | COc1nc(=O)n(C)c(CC(O)(CO)CO)c1C | < 4.00 | < 4.00 | < 4.00 | < 4.00 | < 4.00 | < 4.00 | – | – | – | – | – | –
7 | Cc1c(CC(O)(CO)CO)n(C)c(=O)[nH]c1=O | < 4.00 | < 4.00 | < 4.00 | < 4.00 | < 4.00 | < 4.00 | – | – | – | – | – | –
8 | COc1nc(CC(O)(CO)CO)c(C)c(OC)n1 | < 4.00 | < 4.00 | < 4.00 | < 4.00 | < 4.00 | < 4.00 | – | – | – | – | – | –
9 | COc1nc(=O)n(C)c(CC(F)(COC(C)=O)COC(C)=O)c1C | < 4.00 | < 4.00 | < 4.00 | < 4.00 | < 4.00 | < 4.00 | – | – | – | – | – | –
10 | COc1nc(CC(O)(COCc2ccccc2)COCc2ccccc2)c(C)c(OC)n1 | 5.37 | 5.46 | 5.42 | 5.44 | 5.62 | 5.22 | – | – | – | – | – | –
11 | COc1nc(CC(O)(COC(C)=O)COC(C)=O)c(C)c(OC)n1 | < 4.00 | < 4.00 | < 4.00 | < 4.00 | < 4.00 | < 4.00 | – | – | – | – | – | –
12 | COc1nc(=O)n(C)c(CC(O)(COC(C)=O)COC(C)=O)c1C | < 4.00 | < 4.00 | < 4.00 | < 4.00 | < 4.00 | < 4.00 | – | – | – | – | – | –
13 | CC(=O)OCC(F)(COC(C)=O)Cc1c(C)c(=O)[nH]c(=O)n1C | < 4.00 | < 4.00 | < 4.00 | < 4.00 | < 4.00 | < 4.00 | – | – | – | – | – | –
